Data from paper PMC11969009 (Nature Communications, 2025).
Where “and” joins values, the source holds several entries; their conditions need not be identical. Equal entries are not always repeated. Where two headings read alike, the source gives them in different places.

What was measured:
229E PL2pro = 229E PL2pro (Human coronavirus 229E, UniProt P0C6X1); assay: biochemical; set-up: inhibition of 229E PL2pro, UbRh dose-response replicate value: unit: %; details: Conc 98 µM
USP21 = USP21 (Homo sapiens, UniProt Q9UK80); format: biochemical
SARS-CoV-2 PLpro [1] = biological target: T1, SARS-CoV-2 PLpro (Severe acute respiratory syndrome coronavirus 2, UniProt P0DTD1); assay: biochemical; format: binding
HKU1 PLpro = HKU1 PLpro (Human coronavirus HKU1, UniProt P0C6X2); assay: biochemical; format: biochemical; set-up: inhibition of HKU1 PLpro, UbRh dose-response replicate value: unit: %
SARS-CoV-2 PLpro [2] = biological target: T1, SARS-CoV-2 PLpro; assay: biochemical; set-up: inhibition of SARS-CoV-2 PLpro, UbRh dose-response replicate value: unit: %
SARS-CoV-2 PLpro [3] = biological target: T1, SARS-CoV-2 PLpro; assay: cell-based; format: cell-based

HKU1 PLpro, sequence (P0C6X2 1648-1958 limits assumed): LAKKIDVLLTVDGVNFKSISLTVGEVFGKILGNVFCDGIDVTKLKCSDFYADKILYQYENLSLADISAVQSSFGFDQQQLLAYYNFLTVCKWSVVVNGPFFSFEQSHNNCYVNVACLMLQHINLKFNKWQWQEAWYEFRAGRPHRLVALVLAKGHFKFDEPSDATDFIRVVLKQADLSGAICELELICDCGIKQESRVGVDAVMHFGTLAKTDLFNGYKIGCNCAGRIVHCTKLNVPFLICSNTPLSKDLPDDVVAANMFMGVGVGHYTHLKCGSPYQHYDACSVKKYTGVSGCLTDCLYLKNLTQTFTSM
229E PL2pro, sequence (P0C6X1 1599-1905 limits assumed): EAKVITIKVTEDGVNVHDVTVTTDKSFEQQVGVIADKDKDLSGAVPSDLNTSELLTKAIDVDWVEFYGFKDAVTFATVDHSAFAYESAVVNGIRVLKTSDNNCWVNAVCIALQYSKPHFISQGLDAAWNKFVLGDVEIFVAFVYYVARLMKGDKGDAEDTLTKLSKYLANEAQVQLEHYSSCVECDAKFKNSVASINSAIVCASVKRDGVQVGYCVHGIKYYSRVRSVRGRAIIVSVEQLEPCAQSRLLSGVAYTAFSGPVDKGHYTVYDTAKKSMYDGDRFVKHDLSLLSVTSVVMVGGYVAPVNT
USP21, sequence (Q9UK80 whole entry): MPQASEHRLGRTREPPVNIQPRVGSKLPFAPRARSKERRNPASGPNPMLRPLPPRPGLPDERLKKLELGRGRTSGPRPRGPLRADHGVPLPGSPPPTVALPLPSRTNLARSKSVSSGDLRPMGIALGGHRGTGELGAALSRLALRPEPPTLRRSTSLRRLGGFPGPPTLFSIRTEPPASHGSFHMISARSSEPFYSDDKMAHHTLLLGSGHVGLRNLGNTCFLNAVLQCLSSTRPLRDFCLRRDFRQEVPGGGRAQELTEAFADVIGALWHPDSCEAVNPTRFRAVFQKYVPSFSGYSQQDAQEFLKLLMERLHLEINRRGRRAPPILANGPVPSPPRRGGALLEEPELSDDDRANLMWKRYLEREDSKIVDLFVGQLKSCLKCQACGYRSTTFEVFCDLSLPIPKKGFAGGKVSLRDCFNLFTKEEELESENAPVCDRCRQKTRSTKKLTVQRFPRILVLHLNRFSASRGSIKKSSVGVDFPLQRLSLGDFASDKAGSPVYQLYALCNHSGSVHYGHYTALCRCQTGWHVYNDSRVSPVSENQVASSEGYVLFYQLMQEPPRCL

## CO/N=C(/c1ccc2cc(OC)ccc2c1)[C@@H]1CCCN([C@H]2CC[C@@H](O)CC2)C1 [WEHI-P4]
229E PL2pro
  inhibition of 229E PL2pro, UbRh dose-response replicate value: 0.4544 and 1.371 and 3.91 and 5.222
USP21
  inhibition of USP21, UbRh dose-response replicate value: -14.237 and -11.9773 and -10.1399 and -17.0381 and -16.4868 and -21.6825 and -18.261 and -18.781 and -13.7423 and -13.1772 and -6.117 and -6.284 and -18.5884 and -21.057 and -7.715 and -13.3224
USP21; Conc 0.000249 µM
  inhibition of USP21, UbRh dose-response replicate value: -14.4284 and -17.3988 and 5.209 and -15.2664
USP21; Conc 0.000745 µM
  inhibition of USP21, UbRh dose-response replicate value: -25.0632 and -19.3083 and -9.965 and -17.0572
USP21; Conc 0.00675 µM
  inhibition of USP21, UbRh dose-response replicate value: -16.8226 and -16.7878 and -5.942 and -9.8797
USP21; Conc 0.545 µM
  inhibition of USP21, UbRh dose-response replicate value: -6.303 and -14.0881 and -12.3002 and -21.4576
USP21; Conc 1.64 µM
  inhibition of USP21, UbRh dose-response replicate value: -4.137 and -7.939 and -11.2839 and -6.868
USP21; Conc 4.9 µM
  inhibition of USP21, UbRh dose-response replicate value: -8.882 and -9.138
SARS-CoV-2 PLpro [1]
  Kd: 18 nM
  Response (RU), report points: 23.5521 RU and 19.8909 RU and 21.8514 RU and 23.0991 RU and 23.6093 RU and 23.8360 RU
HKU1 PLpro
  inhibition of HKU1 PLpro, UbRh dose-response replicate value: 1.705 and -0.1054 and 2.2991 and 4.234 and 8.121 and -2.271 and 3.812 and 1.385 and 5.008 and 9.904 and 4.3232 and 13.1694 and 12.2718 and 4.484 and 1.663 and 12.2999 and 8.634 and 4.883 and 1.702 and 14.2701
HKU1 PLpro; Conc 0.00498 µM
  inhibition of HKU1 PLpro, UbRh dose-response replicate value: 10.7444 and 9.596 and 9.063
HKU1 PLpro; Conc 0.00498 µM, read-out: inhibition of HKU1 PLpro, UbRh dose-response replicate value
  inhibition at 0.00498 µM: 6.7%
HKU1 PLpro; Conc 0.0149 µM
  inhibition of HKU1 PLpro, UbRh dose-response replicate value: 6.961 and -0.5687 and 9.316 and 1.404
HKU1 PLpro; Conc 0.0448 µM
  inhibition of HKU1 PLpro, UbRh dose-response replicate value: 2.999 and 18.114 and 6.887 and 6.926
HKU1 PLpro; Conc 3.63 µM
  inhibition of HKU1 PLpro, UbRh dose-response replicate value: -1.799 and 2.922 and 4.67 and 5.455
HKU1 PLpro; Conc 98 µM
  inhibition of HKU1 PLpro, UbRh dose-response replicate value: -6.574 and 1.985 and 4.593 and -1.2047
SARS-CoV-2 PLpro [2]; Conc 0.000249 µM
  inhibition of SARS-CoV-2 PLpro, UbRh dose-response replicate value: -6.989 and -6.2311 and -15.3901 and -12.0234 and -3.121 and 2.182 and 11.6978 and 1.819
SARS-CoV-2 PLpro [2]; Conc 0.000745 µM
  inhibition of SARS-CoV-2 PLpro, UbRh dose-response replicate value: -5.473 and -5.949 and -17.0454 and -10.682
SARS-CoV-2 PLpro [2]; Conc 0.000747 µM
  inhibition of SARS-CoV-2 PLpro, UbRh dose-response replicate value: 12.1399 and 17.4092 and 12.0617
SARS-CoV-2 PLpro [2]; Conc 0.000747 µM, read-out: inhibition of SARS-CoV-2 PLpro, UbRh dose-response replicate value
  inhibition at 0.000747 µM: 8.73%
SARS-CoV-2 PLpro [2]; Conc 0.00498 µM
  inhibition of SARS-CoV-2 PLpro, UbRh dose-response replicate value: -1.775 and 0.6518 and -0.6615 and -14.6544
SARS-CoV-2 PLpro [2]; Conc 0.00675 µM
  inhibition of SARS-CoV-2 PLpro, UbRh dose-response replicate value: 22.4234 and 17.1978 and 22.0771
SARS-CoV-2 PLpro [2]; Conc 0.00675 µM, read-out: inhibition of SARS-CoV-2 PLpro, UbRh dose-response replicate value
  inhibition at 0.00675 µM: 23.8%
SARS-CoV-2 PLpro [2]; Conc 0.0149 µM
  inhibition of SARS-CoV-2 PLpro, UbRh dose-response replicate value: 22.1269 and 15.6043 and 12.3348
SARS-CoV-2 PLpro [2]; Conc 0.0149 µM, read-out: inhibition of SARS-CoV-2 PLpro, UbRh dose-response replicate value
  inhibition at 0.0149 µM: 20.2%
SARS-CoV-2 PLpro [2]; Conc 0.0448 µM
  inhibition of SARS-CoV-2 PLpro, UbRh dose-response replicate value: 70.4961 and 67.8098 and 82.9795
SARS-CoV-2 PLpro [2]; Conc 0.0448 µM, read-out: inhibition of SARS-CoV-2 PLpro, UbRh dose-response replicate value
  inhibition at 0.0448 µM: 69.6%
SARS-CoV-2 PLpro [2]; Conc 0.545 µM
  inhibition of SARS-CoV-2 PLpro, UbRh dose-response replicate value: 96.1218 and 96.9708 and 96.4204 and 99.1563 and 99.6768 and 97.5259 and 100.026
SARS-CoV-2 PLpro [2]; Conc 0.545 µM, read-out: inhibition of SARS-CoV-2 PLpro, UbRh dose-response replicate value
  inhibition at 0.545 µM: 94.8%
SARS-CoV-2 PLpro [2]; Conc 1.63 µM
  inhibition of SARS-CoV-2 PLpro, UbRh dose-response replicate value: 99.7919 and 99.9266 and 100.674
SARS-CoV-2 PLpro [2]; Conc 1.63 µM, read-out: inhibition of SARS-CoV-2 PLpro, UbRh dose-response replicate value
  inhibition at 1.63 µM: 99.9%
SARS-CoV-2 PLpro [2]; Conc 1.64 µM
  inhibition of SARS-CoV-2 PLpro, UbRh dose-response replicate value: 100.528 and 98.3984 and 97.5602
SARS-CoV-2 PLpro [2]; Conc 1.64 µM, read-out: inhibition of SARS-CoV-2 PLpro, UbRh dose-response replicate value
  inhibition at 1.64 µM: 101%
SARS-CoV-2 PLpro [2]; Conc 3.63 µM
  inhibition of SARS-CoV-2 PLpro, UbRh dose-response replicate value: 107.19 and 107.537 and 118.551
SARS-CoV-2 PLpro [2]; Conc 3.63 µM, read-out: inhibition of SARS-CoV-2 PLpro, UbRh dose-response replicate value
  inhibition at 3.63 µM: 108%
SARS-CoV-2 PLpro [2]; Conc 4.9 µM
  inhibition of SARS-CoV-2 PLpro, UbRh dose-response replicate value: 99.5845 and 98.2639 and 99.0831 and 98.0118 and 99.4255 and 97.4945 and 99.077
SARS-CoV-2 PLpro [2]; Conc 4.9 µM, read-out: inhibition of SARS-CoV-2 PLpro, UbRh dose-response replicate value
  inhibition at 4.9 µM: 99.1%
SARS-CoV-2 PLpro [2]; Conc 98 µM
  inhibition of SARS-CoV-2 PLpro, UbRh dose-response replicate value: 106.984 and 107.551 and 120.253
SARS-CoV-2 PLpro [2]; Conc 98 µM, read-out: inhibition of SARS-CoV-2 PLpro, UbRh dose-response replicate value
  inhibition at 98 µM: 107%
SARS-CoV-2 PLpro [2]; IC50 (UbRh) SARS-CoV-2 PLpro, Supplementary Fig. 2b
  IC50: 32 nM
SARS-CoV-2 PLpro [2]; read-out: inhibition of SARS-CoV-2 PLpro, UbRh dose-response replicate value
  inhibition at […]: 93.6% and 81.4% and 107% (2×) and 108% and 105% and 99.2% and 92.6%
SARS-CoV-2 PLpro [3]
  EC50: 310 nM
